In patent publication US8541344B2, “Compositions with cyclopropenes and metal-complexing agents” (Rohm and Haas Company, priority 2004, dated 2013):
Counter-ions that a name gives are not always drawn. Each block holds one compound with its values, some of them ahead of it.

Key:
[1] = Cyclopropene release measurement (headspace gas chromatography); type: physicochemical; details: for effect on % release of 1-MCP (in words): compared to the 13% with no agent
Procedure: Cyclopropene Headspace Measurement Method:
A composition containing water and cyclopropene was sealed in a bottle equipped with a septum in a manner that leaves a portion of the volume of the bottle filled with gas; a portion of the headspace was analyzed for cyclopropene at 1 hour after injection. The analysis method was gas chromatography using the following parameters:
Cyclopropene Release Measurement
The release of cyclopropene from a mixture of water and cyclopropene was measured as follows.
From the measure concentration of cyclopropene in the headspace and the amount of cyclopropene added to the bottle, the fraction of the total amount of cyclopropene in the bottle that resides in the headspace can be calculated and reported as a percentage based on the amount of cyclopropene added to the bottle.

[2] = tested on: Tomatoes (Rutgers 39 Variety); assay: Tomato epinasty test; type: in vivo; details: for % Control of Epinasty: foliar spray, 1-MCP 140 ppb, ethylene 14 ppm 12-14 hours
Procedure: Tomato epinasty tests were performed as follows:
Tomatoes (Rutgers 39 Variety Harris Seeds No 885 Lot 37729-A3) were grown in 2½″ square pots filled with a commercial potting mix. Two seeds were place in each pot. Plants that had expanded first true leaves and were between 3 and 5 inches high were used for the tomato epinasty test.
To conduct the assay, the plants were sprayed to run off with the test 1-MCP foliar spray and allowed to dry for 4 hours in sunlight These operations were performed in a ventilated area away from the plants growing in the greenhouse so there would not be any unintended treatment to growing plants destined for later experiments.
The 1-MCP treated plants and both treated and untreated controls were placed into an SLX controlled-atmosphere shipping box and sealed. To the box, ethylene was injected through a septum, which gave a concentration of 14 ppm. The plants were held sealed for 12-14 hours in the dark with ethylene in the atmosphere. At the end of ethylene treatment, the box was opened and scored for epinasty. Scoring for epinasty was accomplished by using the following scoring system for each pot. • 1. 0% no epinasty (100% control) • 2. 20% A couple leaves show some drooping (80% control) • 3. 50% Plants show 50% of full response. Not all leaves need to show effect. (50% control) • 4. 80% Almost all leaves drooping and some show underside of leaf exposed on top. (20% control) • 5. 100% Leaves completely drooping and the underside of the leaf exposed from above. (0% control)
The score of each pot is recorded. The average of 6 or 8 pots is averaged to get a score. The percentage improvement is calculated by interpolating the percentage improvement from the control water (i.e., no additives) 1-MCP treatment.
Tomato epinasty tests were conducted using a formulation that included water; a 1-MCP α-CD complex that contained 0.14% 1-MCP by weight, based on the weight of the 1-MCP α-CD complex; and sodium salt of EDTA. The amount of 1-MCP α-CD complex was chosen so that the formulation had 140 ppb of 1-MCP. Also included in the formulation were an anionic surfactant (0.1% by weight based on the weight of the formulation), isopropanol (1% by weight based on the weight of the formulation), and a spray oil (1% by weight based on the weight of the formulation).

[3] = deionized water #1, 5 ppm copper ion, metal-complexing agent 1 mM
[4] = deionized water #1, 5 ppm copper ion, metal-complexing agent 5 mM
[5] = deionized water #1, 5 ppm copper ion, metal-complexing agent 10 mM

SMILES: O=C([O-])[O-].[Na+].[Na+] [sodium carbonate]
% Release of 1-MCP [1, 3]: 61%
% Release of 1-MCP [1, 4]: 68%
% Release of 1-MCP [1, 5]: 71%

SMILES: CC1=CC1 [1-MCP, 1-methylcyclopropene, reference compound]
% Release of 1-MCP ([1]; 1-MCP α-CD complex in deionized #1 water, no metal-complexing agent): 100%
% Release of 1-MCP ([1]; 1-MCP α-CD complex in deionized #2 water, no metal-complexing agent): 60%
% Release of 1-MCP ([1]; 1-MCP α-CD complex in filtered (MilliQ) water, no metal-complexing agent): 100%
% Release of 1-MCP ([1]; 1-MCP α-CD complex in tap #1 water, no metal-complexing agent, headspace at 1 hour): 60%
% Release of 1-MCP ([1]; 1-MCP α-CD complex in tap #2 water, no metal-complexing agent, headspace at 1 hour): 13%
activity of 1-MCP (in words) ([1]; copper ions without sodium salt of EDTA): reduction in activity
activity of 1-MCP (in words) ([1]; copper ions, sodium salt of EDTA added 2 hours after the 1-MCP α-CD complex): fails to maintain the activity
activity of 1-MCP (in words) ([1]; copper ions, sodium salt of EDTA added to the water before the 1-MCP α-CD complex): maintains the full activity
% Release of 1-MCP ([1]; deionized water #1, copper ions 0 ppm, sodium salt of EDTA 0 mM): 100%
% Release of 1-MCP ([1]; deionized water #1, copper ions 1 ppm, sodium salt of EDTA 0 mM): 54%
% Release of 1-MCP ([1]; deionized water #1, copper ions 5 ppm, sodium salt of EDTA 0 mM): 36%
% Release of 1-MCP ([1]; deionized water #1, copper ions 5 ppm, sodium salt of EDTA 11 mM added 2 hours after 1-MCP α-CD complex, headspace 1 hour later): 37%
% Release of 1-MCP ([1]; deionized water #1, copper ions 5 ppm, sodium salt of EDTA 11 mM added before the 1-MCP α-CD complex): 100%
% Release of 1-MCP ([1]; deionized water #1, copper ions 10 ppm (cupric sulfate), sodium salt of EDTA 0 mM): 10%
control of epinasty (in words) ([2]; deionized water with 1-MCP): does control epinasty
% Control of Epinasty ([2]; de-ionized water, EDTA 0 mM): 100%
% Control of Epinasty ([2]; well water, EDTA 0 mM): 0%
% Control of Epinasty ([2]; well water, EDTA 0.003 mM): 80%
control of epinasty (in words) ([2]; well water with 1-MCP): does not control epinasty
control of epinasty (in words) ([2]; well water with 1-MCP and sodium salt of EDTA): does control epinasty

SMILES: O=P([O-])([O-])OP(=O)([O-])[O-].[Na+].[Na+].[Na+].[Na+] [tetrasodium pyrophosphate]
% Release of 1-MCP [1, 3]: 42%
% Release of 1-MCP [1, 4]: 39%
% Release of 1-MCP [1, 5]: 54%

Second part, the compound after the results:

% Release of 1-MCP [1, 3]: 99%
% Release of 1-MCP [1, 4]: 85%
% Release of 1-MCP [1, 5]: 92%
SMILES: O=C(O)C(O)C(O)C(=O)O (centres unmarked) [Tartaric acid, tartaric acid]

% Release of 1-MCP [1, 3]: 97%
% Release of 1-MCP [1, 4]: 100%
% Release of 1-MCP [1, 5]: 95%
SMILES: O=C(O)CN(CC(=O)O)CC(=O)O [nitrilotriacetic acid]

effect on % release of 1-MCP (in words) ([1]; tap #2 water): improves the % release dramatically
% Release of 1-MCP ([1]; tap #2 water, sodium salt of EDTA 0.00001 milliMolar): 87%
% Release of 1-MCP ([1]; tap #2 water, sodium salt of EDTA 0.0001 milliMolar): 100%
% Release of 1-MCP ([1]; tap #2 water, sodium salt of EDTA 0.001 milliMolar): 100%
% Release of 1-MCP ([1]; tap #2 water, sodium salt of EDTA 0.01 milliMolar): 100%
% Release of 1-MCP ([1]; tap #2 water, sodium salt of EDTA 0.1 milliMolar): 100%
% Release of 1-MCP ([1]; tap #2 water, sodium salt of EDTA 1 milliMolar): 100%
% Release of 1-MCP ([1]; tap #2 water, sodium salt of EDTA 10 milliMolar): 100%
SMILES: O=C(O)CN(CCN(CC(=O)O)CC(=O)O)CC(=O)O [Sodium Salt of EDTA, ethylenediaminetetraacetic acid]

% Release of 1-MCP ([1]; tap #2 water, citric acid 1 milliMolar added first): 63%
% Release of 1-MCP ([1]; tap #2 water, citric acid 10 milliMolar added first): 100%
% Release of 1-MCP ([1]; tap #2 water, citric acid 100 milliMolar added first): 92%
effect on % release of 1-MCP (in words) ([1]; tap #2 water): improves the % release dramatically
SMILES: O=C(O)CC(O)(CC(=O)O)C(=O)O [Citric Acid, citric acid]
